Reference: patent publication US8629251B2, “Specific detection and quantification of phosphatidic acid using an Arabidopsis trigalactosyldiacylglycerol-4 (TGD4) protein” (Board of Trustees of Michigan State University, priority 2008, dated 2014)

How the values were obtained:
Type in all cases: binding
[1] = biological target: T1, Arabidopsis TGD4, DsRED-TGD4C-His (C-terminal fragment 309-479, SEQ ID NO: 131) (Arabidopsis thaliana, UniProt Q9M903); assay: Liposome association assay, DsRED-TGD4C-His; details: dioleoyl-PtdOH/dioleoyl-PtdCho liposomes, 0 to 80% PtdOH, FIG. 19B
T1 sequence (Q9M903 309-479): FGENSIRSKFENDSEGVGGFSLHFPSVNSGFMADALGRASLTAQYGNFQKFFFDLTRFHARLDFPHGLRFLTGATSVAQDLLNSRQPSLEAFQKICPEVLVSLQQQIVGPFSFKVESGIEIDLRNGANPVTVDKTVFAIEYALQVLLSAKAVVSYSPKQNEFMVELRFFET
Protocol: (§1) Liposome Association Assay:
(§2) The liposome association assay was adapted from (Awai et al., 2006, Lu and Benning, 2009) with minor modifications. Dioleoyl-PtdCho and PtdOH with different acyl chain lengths and desaturation levels were used for making liposomes. In other liposomes 1-palmitoyl-2-(12-((7-nitro-2-1,3-benzoxadiazol-4-yl)amino)dodecanoyl)-sn-glycero-3-phosphate (NBD-PtdOH; Avanti, Alabaster, Ala.) was used. The lipids were mixed at indicated ratios to give a total lipid amount of 250 μg. The lipids were dried under a stream of nitrogen, resuspended in 0.5 ml TBS buffer with 0.2 M choline chloride and hydrated at 37° C. for 1 hour followed by vigorous vortexing for 2 minutes. The resulting multi-lamellar vesicles were centrifuged at 13,000×g for 10 minutes and then washed once with TBS buffer containing 0.2 M choline chloride. The liposomes were resuspended into 100 μl TBS buffer with 0.2 M choline chloride and incubated with 2 μg purified DsRED-TGD4-His protein and its derivatives. The protein liposome mixture was incubated on ice for 30 minutes followed by centrifugation at 13,000×g for 10 minutes and two washes with 500 μl TBS containing 0.2 M choline chloride. The resulting protein-liposome pellet was resuspended in 20 μl 2× Laemmli buffer (Laemmli, 1970) and processed by SDS-PAGE (Shapiro and Maizel, 1969).

[2] = biological target: T2, Arabidopsis TGD2, DsRed-TGD2C WT fusion protein, residues 119-381, SEQ ID NO:107 (Arabidopsis thaliana, UniProt Q9LTR2); assay: Protein-lipid overlay assay, DsRed-TGD2C WT; details: commercial phospholipid membrane strip
T2 sequence (Q9LTR2 121-381): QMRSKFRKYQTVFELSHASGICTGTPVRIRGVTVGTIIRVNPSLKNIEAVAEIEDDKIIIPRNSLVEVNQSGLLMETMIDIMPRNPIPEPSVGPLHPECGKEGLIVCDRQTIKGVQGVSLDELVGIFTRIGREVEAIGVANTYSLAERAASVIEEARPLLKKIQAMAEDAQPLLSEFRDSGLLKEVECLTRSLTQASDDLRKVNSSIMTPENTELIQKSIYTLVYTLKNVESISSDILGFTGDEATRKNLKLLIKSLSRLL
Protocol: Membrane lipid strips were purchased from Echelon Biosciences (Salt Lake City, Utah). The strips were first blocked with 3% bovine serum albumin in TBST (10 mM Tris-HCl, pH 8.0, 150 mM NaCl, and 0.25% Tween-20) for two hours and incubated in 0.5 μg/mL DsRed-TGD2 fusion protein solution in the blocking buffer at 4° C. overnight. The strips were washed 10 min for 3 times with TBST the next day and soaked in 3% bovine serum albumin in TBST with a Penta-His mouse monoclonal antibody (Sigma-Aldrich, St. Louis, Mo.) at 1:2,000 dilution at 4° C. overnight. The strips were washed twice with TBST and soaked in 3% bovine serum albumin in TBST with horseradish peroxidase-conjugated anti mouse antibody (Bio-Rad, Hercules, Calif.) at 1:20,000 dilution for an hour at room temperature. Following washing with TBST for 1 hour, the protein was detected by using the chemiluminescent detection system (Sigma-Aldrich).

[3] = biological target: T3, Arabidopsis TGD2, DsRed-TGD2C with deletion of the 25-mer minimal domain (DR-Δ25, residues 201-225 deleted) (Arabidopsis thaliana, UniProt Q9LTR2, DEL201-225); assay: Liposome-association assay, minimal domain deletion DR-Δ25
T3 construct: made in house; host or cells: Escherichia coli BL21 (DE3)
T3 sequence (Q9LTR2 other isoform, or with tags, fused parts or gaps DEL201-225): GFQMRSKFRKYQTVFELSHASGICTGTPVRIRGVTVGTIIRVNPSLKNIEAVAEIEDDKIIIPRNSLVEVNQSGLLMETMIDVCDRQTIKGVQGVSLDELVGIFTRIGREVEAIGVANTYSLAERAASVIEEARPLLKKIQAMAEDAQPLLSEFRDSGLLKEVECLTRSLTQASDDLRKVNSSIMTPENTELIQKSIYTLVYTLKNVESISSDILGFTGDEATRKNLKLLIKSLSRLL
Protocol: The liposome association assay was performed as previously reported. (31). Briefly, lipids (dioleoyl-phosphatidylcholine, DOPC or dioleoyl-PA, DOPA) were incubated in TBS (50 mM Tris-HCl, pH 7; 0.1 M NaCl) at 37° C. for an hour followed by vigorous vortexing for 5 min. The liposomes were precipitated at 20,000 g and washed twice with ice-cold TBS.
Liposomes (200 μg) were mixed with purified DsRed-TGD2 fusion protein and TBS to make a final 100 μL solution. The mixture was incubated at 30° C. for 30 min and washed twice with ice-cold TBS by centrifugation at 20,000 g at 4° C. The liposome pellet mixed with sample buffer was analyzed by SDS-PAGE (28). Immuno-detection of the His-tagged protein was accomplished using the above mentioned Penta-His antibody at 1:15,000 and the anti mouse antibody at 1:75,000 dilution.
(§3) The protein band was visualized by chemiluminescent detection kit from Sigma. The autoradiography film was scanned, distinct protein bands were quantified using computer software Multi Gauge V3.0 (Fujifilm USA, Valhalla, N.Y.) and resulted data were plotted and analyzed by OriginPro8 (Origin lab corporation, Northampton, Mass.).

[4] = biological target: Arabidopsis TGD2, DsRed fusion of the 25-mer minimal domain (residues 201-225, SEQ ID NO:12), K221A (Arabidopsis thaliana, UniProt Q9LTR2, K221A); assay: Liposome-association assay, point mutant K221A of the minimal domain; details: 100% PA liposomes, FIG. 4C
Sequence of Arabidopsis TGD2, DsRed fusion of the 25-mer minimal domain (residues 201-225, SEQ ID NO:12), K221A (Q9LTR2 201-225 K221A): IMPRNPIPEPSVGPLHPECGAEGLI
Protocol: Some reports have identified that TGD2 PA-binding regions involve basic amino acids and/or tryptophan residues (10). […] Based on sequence similarity of TGD2 to its closely related homologs in plants and green algae, several charged and/or conserved amino acids were picked as potential interesting residues in the 25-mer minimal domain for possibly mediating interactions with PA. An alanine screen was then performed to evaluate these residues within a minimal PA binding region of TGD2 (i.e., for example, SEQ ID NO:12). Point mutations were generated in the 25-mer minimal domain and fused with DsRed to test PA binding by liposome-association assay using 100% PA liposomes.
The liposome association assay was performed as previously reported. (31). […]
Liposomes (200 μg) were mixed with purified DsRed-TGD2 fusion protein and TBS to make a final 100 μL solution. […] The liposome pellet mixed with sample buffer was analyzed by SDS-PAGE (28). […]
as §3

[5] = biological target: T4, Arabidopsis TGD4, DsRED-ΔTGD4-His (hydrophobic region 287D-309F deleted, SEQ ID NO:133) (Arabidopsis thaliana, UniProt Q9M903, DEL287-309); assay: Liposome association assay, DsRED-ΔTGD4-His; details: dioleoyl-PtdOH/dioleoyl-PtdCho liposomes, 0 to 80% PtdOH, FIG. 19B
T4 construct: b369 deletes nt 859-924 (22 codons)
T4 sequence (Q9M903 other isoform, or with tags, fused parts or gaps DEL287-309): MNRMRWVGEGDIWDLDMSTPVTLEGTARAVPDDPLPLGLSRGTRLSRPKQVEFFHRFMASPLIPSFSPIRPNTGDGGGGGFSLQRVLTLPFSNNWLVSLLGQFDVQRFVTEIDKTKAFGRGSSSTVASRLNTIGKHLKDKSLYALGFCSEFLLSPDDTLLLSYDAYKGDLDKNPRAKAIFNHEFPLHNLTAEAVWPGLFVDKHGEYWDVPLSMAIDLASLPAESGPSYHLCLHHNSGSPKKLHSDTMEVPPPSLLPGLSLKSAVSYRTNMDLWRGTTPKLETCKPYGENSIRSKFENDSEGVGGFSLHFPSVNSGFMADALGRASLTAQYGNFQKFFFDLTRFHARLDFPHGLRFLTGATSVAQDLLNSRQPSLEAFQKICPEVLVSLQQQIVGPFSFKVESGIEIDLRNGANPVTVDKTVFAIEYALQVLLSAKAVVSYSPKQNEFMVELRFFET
Protocol: as §1, §2

[6] = mixed PA/PC liposomes, FIGS. 5E and 5F

## CCCCCCCC/C=C\CCCCCCCC(=O)OC[C@H](COP(=O)(O)O)OC(=O)CCCCCCC/C=C\CCCCCCCC [PA, phosphatidic acid]
[1]
  PtdOH binding affinity: much lower affinity compared to the wild-type protein DsRED-TGD4-His but still bound PtdOH
[2]
  binding to lipids on membrane strip: shows specificity for PA over other lipids
[3]; PA liposomes
  residual PA binding activity: retains residual binding activity, albeit with significantly lower affinity
[3]; [6]
  Hill number, PA binding: 7.3
  Kd, PA binding: 53.47 mol %
[4]
  PA binding: significantly reduced the amount of interaction with PA-liposomes
[5]
  PtdOH binding activity: did not require the central hydrophobic region of TGD4
